The values below come from patent publication US20070270464A1, “PRODRUGS OF CURCUMIN ANALOGS” (priority 2006, published 2007).

Series [1] concerns DU-145 human prostate cancer cells. The note with it: DU-145 cells, background statement; cited from earlier work.
In series [2] the test system is MDA-MB-231 human breast cancer cells. The note with it: MDA-MB-231 cells, background statement; cited from earlier work.
For series [3] the following is noted: background statement; cited from earlier work.
For series [4] the following is noted: background statement; cited from earlier work. This is another data set of the same source.
For a further series, the system named is tumor cell growth. The note with it: background statement; cited from earlier work.
Series [5] can be described thus: Photostability: appearance of aqueous solution under room light. The series is classed as physicochemical. The note with it: EF24-GSH: after 48 hours under room light; EF24: diluted aqueous solution, overnight.
Series [6] concerns MDA-MB-435 breast cancer cells. The series is described as follows: Photostability: cytotoxicity of solutions kept under room light, Neutral Red assay. The note with it: EF24-GSH: 10 mM in sterile water, up to 48 hours under room light, FIG. 3; EF24: diluted aqueous solution, overnight. The series is classed as cell-based, human. As to the method: MDA-MB-435 breast cancer cells were seeded at 2×10^4 per well in a 96-well plate with DMEM medium supplemented with 10% FBS, plus antibiotics penicillin and streptomycin. After 24 hours, cells were treated with EF24-GSH in the presence of the above growth medium. EF24-GSH solutions were made fresh at 10 mM with sterile water and placed under room light in clear Eppendorf tubes for 30 min, 24 hours and 48 hours, respectively, before adding to the cells. Cell viability was determined after 48 hours of treatment with EF24-GSH conjugate using the Neutral Red assay.

On to `CC(=O)O.O=C1C(=Cc2ccccc2F)CNCC1=Cc1ccccc1F` [EF24, 3,5-Bis-(2-fluorobenzylidene)-piperidin-4-one, acetic acid salt], for which the cell cycle arrest result in series [1] was “G2/M arrest”. The cell cycle arrest result in series [2] is “G2/M arrest”. Moreover, in series [3], the photostability entry was “poor photostability” and the water solubility entry is “relatively insoluble in water”. Moreover, in series [4], the toxicity entry is “relatively little toxicity”. Further, the “inhibition of tumor cell growth, potency compared with cisplatin” value with tumor cell growth is listed as “higher potency than cisplatin”. Further, the “colour of the solution under room light” value in series [5] is given as “turns dark overnight”. Moreover, the “cytotoxicity after exposure of the solution to room light” value in series [6] is “severely compromised”.
